Measured values from patent publication US20120082727A1, “USE OF MAGNESIUM STEARATE IN DRY POWDER FORMULATIONS FOR INHALATION” (CHIESI FARMACEUTICI S.p.A., priority 2010, published 2012).

Assay: Chemical stability of dry powder formulations on storage in glass vials, residual test compound and hydrolysis product by UPLC
Type: physicochemical
Settings: 25 °C, 60% rel. humidity; for CHF 5551.02 values (%): hydrolysis degradation product
Protocol: Dry powder formulations were prepared comprising as a carrier either particles of alpha-lactose monohydrate 212-355 microns alone (coarse) or coated with magnesium stearate (coated). Said coated particles were obtained by mixing alpha-lactose monohydrate with 1% magnesium stearate in a Turbula mixer for 4 hours.
Samples of the manufactured mixtures were filled in glass vials and stored under stressing conditions ([…]) in comparison to a sample stored under long tem conditions (25 ° C., 60% relative humidity).
The percentage amount of residual test compound and of the degradation product due to hydrolysis, (R)-1-hydroxy-(2-oxo-2-thiophen-2-yl-ethyl)-1-azonia-bicyclo[2.2.2]octane; chloride quoted as CHF 5551.02, was determined in the two formulations by ultra performance liquid chromatography (UPLC) in comparison to the active ingredient without the carrier (API). The variation of CHF 5551.2 content with the time is also plotted in FIG. 3.

With O=C(OC(c1cccc(F)c1)c1cccc(F)c1)O[C@H]1C[N+]2(CC(=O)c3cccs3)CCC1CC2.[Cl-] [Test compound, (R)-3-[bis-(3-fluoro-phenyl)-methoxycarbonyloxy]-1-(2-oxo-2-thiophen-2-yl-ethyl)-1-azonia-bicyclo[2.2.2]octane; chloride] the “Test compound values (%)” value (0 days) was 100.0%, the “Test compound values (%)” value (2 days) was 99.9% and the “Test compound values (%)” value (4 days) was 99.9%. For the same molecule, the “Test compound values (%)” value (7 days) was 99.9%, the “Test compound values (%)” value (9 days) was 99.9% and the “Test compound values (%)” value (11 days) was 99.9%. The “Test compound values (%)” value (14 days) was 100.0%, the “CHF 5551.02 values (%)” value (0 days) was 0.08% and the “CHF 5551.02 values (%)” value (2 days) was 0.20%. For the same molecule, the “CHF 5551.02 values (%)” value (4 days) was 0.29%, the “CHF 5551.02 values (%)” value (7 days) was 0.24% and the “CHF 5551.02 values (%)” value (9 days) was 0.28%. The “CHF 5551.02 values (%)” value (11 days) was 0.29% and the “CHF 5551.02 values (%)” value (14 days) was 0.23%.
